From US20150183791A1, “IMIDAZO[1,2-b]PYRIDAZINE-BASED COMPOUNDS, COMPOSITIONS COMPRISING THEM, AND METHODS OF THEIR USE” (LEXICON PHARMACEUTICALS, INC., priority 2013, published 2015)

target: T1, AAK1 (full length human) transfected with Flag/AP2MI in HEK293F cells; phospho-mu2 (Homo sapiens, UniProt Q2M2I8); experiment: HEK281 cell-based assay; conditions: HEK293F cells transfected with human AAK1 and AP2M1, 3 hours with compound, phospho-mu2 Western blot normalized to total Mu2
T1 construct: HA; expressed in transfected cells; host or cells: HEK293F
Protocol: HEK293F cells were cultured in media containing DMEM (Gibco, cat. #11965), 10% FBS (SAFC Biosciences, cat. #12103C), 1×GPS (glutamine, penicillin and streptomycin). On day one, cells were plated on a 10 cm dish so that they are ˜80% confluent at time of transfection. Roughly 12 million cells were in a 10 cm dish at time of transfection. On day two, each dish was transfected with 48 ug DNA and 144 ul Lipofectamine 2000 (Invitrogen, cat.#11668-019). The DNA was comprised of a mixture (per 10 cm dish) containing 3 ug AAK1/HA/pIRES (full length human, NCBI accession no. NP_055726.2), 45 μg Flag/AP2MI/pcDNA (full length human), and 1.5 ml OPTI-MEM. The Lipofectamine 2000 is made up of a mixture (per 10 cm dish) containing 144 μl Lipofectamine 2000 and 1.5 ml OPTI-MEM. Each mixture was transferred to individual 15 ml tubes and incubated at room temperature for 5 minutes, and then the two mixes were combined and incubated at room temperature for 20 minutes. Growth media was then aspirated from each 10 cm plate and replaced with 10 ml of DMEM+10% FBS (no GPS). Finally, 3 ml DNA/Lipofectamine mix was added to each 10 cm dish and mix gently followed by incubate of plate overnight at 37° C. and 5% CO2.
On day three, compounds were diluted in 100% DMSO at 1000× final concentration, followed by 3-fold serial dilutions for a total of 5 concentrations tested. Four compounds were tested per 10 cm dish. One ul of each compound dilution was then pipetted into a deep-well, 96-well plate, followed by addition of 500 μl DMEM+0.5% FBS into each well for a 2× final concentration of each compound. Cells were resuspended in a 10 cm dish by simple pipetting (HEK293 cells come off the plate that easy at this point) and then transferred to a 50 ml conical tube and pelleted by centrifugation at 1000 rpm for 5 min. Cell pellets were then resuspended in 2.75 ml DMEM+0.5% FBS per 10 cm dish and 100 μl of cell suspension transferred into each well of 96-well TC plate. Finally, 100 μl of 2× compound diluted in DMEM+0.5% FBS was then added into wells containing cell suspension for a 1× final concentration. Plates were then incubated at 37° C. and 5% CO2 for 3 hours followed by transferring of cell suspensions from each well into 12-tube PCR strips. The PCR strips were spun in a tip rack at 1000 rpm for 5 minutes to pellet cells and media was then removed by pipetting without disturbing the cell pellet.
To prepare for Western Blot analysis, cell pellets were resuspend in 40 ul 1×LDS-PAGE sample buffer (Invitrogen, cat.# NP0008) +2× Halt phophatase and protease inhibitor cocktail (Thermo Scientific, cat.#1861284), followed by sonicating each with microtip sonicator set at 5 for 8-10 seconds. Five ul of 10× NuPage Sample Reducing Agent (with […]) was to each sample followed by heat denaturing at 70 C for 10 min on PCR machine. A total of 10 μl per sample was loaded into each lane of a 4-20% Tris-Glycine Criterion 26-well gel (Biorad, cat.#345-0034) for the phospho-mu2 blot and 10 μl per lane in a 4-12% Bis-Tris (+MES buffer) NuPAGE 26-well gel (Invitrogen, cat.# WG1403BX10) for the mu2 blot. For controls, 2 ng of phospho-mu2 or 20 ng mu2/Flag proteins were loaded in the last well of each gel. After SDS-PAGE, samples on each gel were transferred to PVDF membrane using an iBlot and membranes were blocked for one hour in TBST+5% milk, followed by wash 3× for 5-10 min with TBST. Criterion gels were probed with rabbit anti-phospho-mu2 (1:5000; a rabbit polyclonal antibody produced by New England Peptide and affinity purified at Lexicon) in TBST+5% BSA, whereas, NuPAGE gels were probed with mouse anti-Flag (1:500; Sigma, cat.# F1804) in TBST+5% milk, and these primary antibodies were incubated overnight at 4° C. on a rocker. […]

T1 sequence (Q2M2I8 1-863 isoform Q2M2I8-2): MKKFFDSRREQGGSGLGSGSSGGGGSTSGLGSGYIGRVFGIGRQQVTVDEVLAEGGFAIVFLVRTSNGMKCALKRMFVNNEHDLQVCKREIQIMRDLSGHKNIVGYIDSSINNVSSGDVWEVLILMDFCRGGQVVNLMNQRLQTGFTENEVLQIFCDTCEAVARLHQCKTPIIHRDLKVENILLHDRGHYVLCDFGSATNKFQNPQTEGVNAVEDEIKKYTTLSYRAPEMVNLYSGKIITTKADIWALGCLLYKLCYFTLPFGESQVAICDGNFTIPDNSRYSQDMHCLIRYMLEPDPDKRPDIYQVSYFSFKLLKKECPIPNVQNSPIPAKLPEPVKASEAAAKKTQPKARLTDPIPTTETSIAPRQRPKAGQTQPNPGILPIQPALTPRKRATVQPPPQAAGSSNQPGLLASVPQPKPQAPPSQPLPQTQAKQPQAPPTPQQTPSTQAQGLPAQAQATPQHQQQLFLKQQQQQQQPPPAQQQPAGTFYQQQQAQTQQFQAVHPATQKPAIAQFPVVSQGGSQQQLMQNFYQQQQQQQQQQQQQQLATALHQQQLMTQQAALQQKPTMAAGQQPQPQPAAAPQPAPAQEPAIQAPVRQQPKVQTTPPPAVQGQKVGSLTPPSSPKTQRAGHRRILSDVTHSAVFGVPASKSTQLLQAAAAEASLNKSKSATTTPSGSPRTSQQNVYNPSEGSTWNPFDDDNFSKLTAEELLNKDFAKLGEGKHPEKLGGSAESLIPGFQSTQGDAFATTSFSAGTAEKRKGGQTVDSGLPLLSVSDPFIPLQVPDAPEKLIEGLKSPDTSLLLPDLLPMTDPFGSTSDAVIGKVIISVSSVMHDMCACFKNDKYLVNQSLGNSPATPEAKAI

SMILES	CBA IC50
CC(=O)c1ccc(-c2cnc3ccc(-c4ccc(C#N)cc4)nn23)s1 [4-[3-(5-Acetyl-thiophen-2-yl)-imidazo[1,2-b]pyridazin-6-yl]-benzonitrile]	* (“*” means less than or equal to 1.0 μM)
CCCCCc1ccc2ncc(-c3ccc(C(C)=O)s3)n2n1 [1-(5-(6-Pentylimidazo[1,2-b]pyridazin-3-yl)thiophen-2-yl)ethanone]	* (“*” means less than or equal to 1.0 μM)

target: AAK1 (full-length human protein) (Homo sapiens, UniProt Q2M2I8); experiment: P81 filter plate assay; type: biochemical; conditions: 0.2 nM-scale full-length human AAK1, Mu2 substrate, 33P-ATP, one hour at room temperature; class symbols
Protocol: Compounds were serially diluted into a Labcyte LDV plate (Labcyte, cat# LP-0200) using a Mutiprobe (PerkinElmer) and Biomek FX (Beckman Coulter) so that the highest compound concentration was at 96 μM. Compounds were then pinged (75 nL per well) into a Greiner 384-well reaction plate (Greiner, #781076) using an ECHO 550 Liquid Handler (Labcyte). A total of 12 μl reaction buffer (IMAP buffer containing Tween and DTT, from Molecular Devices) was then added to each well of columns 1 and 13 for the negative controls and 12 μl of 2×AAK1 (0.2 nM full-length human protein, NCBI accession no. NP_055726.2) was added to the remaining wells. Enzyme was then pre-incubated with compound for 10 minutes at room temperature. Reactions were initiated upon Minitrak (PerkinElmer) addition of 12 μl substrate mix containing 2× Mu2 (0.2 μM, full length human protein), 2× cold ATP (2 μM), and 1.3 μCi of hot ^33P-ATP. Reactions proceeded for one hour at room temperature. Meanwhile, Millipore 384-well P81 filter plates (Millipore, catalog # MZPHN0 W10) were placed on a plate washer (Zoom ZW, from Titertek) and pre-wet with 50 μl 1% phosphoric acid. Kinase reactions were then stopped upon addition of 24 μl of 2% phosphoric acid to each well and the Minitrak was then used to transfer 40 μl from each well into the pre-wet Millipore 384-well P81 filter plates. Reaction mixtures were incubated for 10 minutes at room temperature in the P81 plates, followed by washing five times with 100 μl/well of 1% phosphoric acid using the Zoom filter washer. The bottom of each filter plate was sealed followed by addition of 20 μl Microscint 40 to each well, sealing the top of the plates with Flashplate cover, and then waiting one hour until reading on the TopCount (Perkin Elmer).

Chain of AAK1 (full-length human protein) (Q2M2I8 1-863 isoform Q2M2I8-2): as above

SMILES	IC50 [nM]
COc1ncccc1-c1cnc2ccc(-c3cnn(C(=O)OC(C)C)c3)nn12 [Isopropyl 4-(3-(2-methoxypyridin-3-yl)imidazo[1,2-b]pyridazin-6-yl)-1H-pyrazole-1-carboxylate]	≤ 10
COc1ncccc1-c1cnc2ccc(-c3cnn(CC(C)(C)C)c3)nn12 [3-(2-Methoxypyridin-3-yl)-6-(1-neopentyl-1H-pyrazol-4-yl)imidazo[1,2-b]pyridazine]	≤ 10
CC(C)CCn1ccc(-c2ccc3ncc(Br)n3n2)cc1=O [4-(3-Bromoimidazo[1,2-b]pyridazin-6-yl)-1-isopentylpyridin-2(1H)-one]	≤ 10
CCOc1ncccc1-c1cnc2ccc(-c3ccn(CCC(C)C)c(=O)c3)nn12 [4-(3-(2-Ethoxypyridin-3-yl)imidazo[1,2-b]pyridazin-6-yl)-1-isopentylpyridin-2(1H)-one]	≤ 10
COc1nc(C)ccc1-c1cnc2ccc(-c3ccn(CCC(C)C)c(=O)c3)nn12 [1-isopentyl-4-(3-(2-methoxy-6-methylpyridin-3-yl)imidazo[1,2-b]pyridazin-6-yl)pyridin-2(1H)-one]	≤ 10
CC(C)C[C@H](N)Cn1ccc(-c2ccc3ncc(Cl)n3n2)cc1=O [(S)-1-(2-Amino-4-methylpentyl)-4-(3-chloroimidazo[1,2-b]pyridazin-6-yl)pyridin-2(1H)-one]	100 to 1000
COc1ncc(F)cc1-c1cnc2ccc(-c3ccn(CCC(C)C)c(=O)c3)nn12 [4-(3-(5-Fluoro-2-methoxypyridin-3-yl)imidazo[1,2-b]pyridazin-6-yl)-1-isopentylpyridin-2(1H)-one]	≤ 10
CC(C)CCn1ccc(-c2ccc3ncc(Cl)n3n2)cc1=O [4-(3-Chloroimidazo[1,2-b]pyridazin-6-yl)-1-isopentylpyridin-2(1H)-one]	≤ 10

Next, values leading:

IC50 [nM]	SMILES
≤ 10	CC(C)CCn1cc(-c2ccc3ncc(Br)n3n2)cn1 [3-Bromo-6-(1-isopentyl-1H-pyrazol-4-yl)imidazo[1,2-b]pyridazine]
≤ 10	Cc1cnc2ccc(-c3ccn(CCC(C)C)c(=O)c3)nn12 [1-Isopentyl-4-(3-methylimidazo[1,2-b]pyridazin-6-yl)pyridin-2(1H)-one]
≤ 10	COc1ncccc1-c1cnc2ccc(-c3ccn(CCC(C)C)c(=O)c3)nn12 [1-isopentyl-4-(3-(2-methoxypyridin-3-yl)imidazo[1,2-b]pyridazin-6-yl)pyridin-2(1H)-one]
10 to 100	COc1ncccc1-c1cnc2ccc(-c3ccn(C[C@@H](N)CC(C)C)c(=O)c3)nn12 [(S)-1-(2-Amino-4-methylpentyl)-4-(3-(2-methoxypyridin-3-yl)imidazo[1,2-b]pyridazin-6-yl)pyridin-2(1H)-one]
≤ 10	COc1cnccc1-c1cnc2ccc(-c3cccc(C(=O)CCC(C)C)c3)nn12 [1-(3-(3-(3-Methoxypyridin-4-yl)imidazo[1,2-b]pyridazin-6-yl)phenyl)-4-methylpentan-1-one]
100 to 1000	CC(C)C[C@H](N)Cn1ccc(-c2ccc3ncc(Br)n3n2)cc1=O [(S)-1-(2-Amino-4-methylpentyl)-4-(3-bromoimidazo[1,2-b]pyridazin-6-yl)pyridin-2(1H)-one]
≤ 10	COc1ncccc1-c1cnc2ccc(-c3cnn(CCC(C)C)c3)nn12 [6-(1-Isopentyl-1H-pyrazol-4-yl)-3-(2-methoxypyridin-3-yl)imidazo[1,2-b]pyridazine]
10 to 100	CC(C)(C)Cn1cc(-c2ccc3ncc(Cl)n3n2)cn1 [3-Chloro-6-(1-neopentyl-1H-pyrazol-4-yl)imidazo[1,2-b]pyridazine]
10 to 100	CC(C)(C)Cn1cc(-c2ccc3ncc(Br)n3n2)cn1 [3-Bromo-6-(1-neopentyl-1H-pyrazol-4-yl)imidazo[1,2-b]pyridazine]
100 to 1000	CC(C)CCn1cc(-c2ccc3nccn3n2)cn1 [6-(1-Isopentyl-1H-pyrazol-4-yl)imidazo[1,2-b]pyridazine]
10 to 100	Cc1cnc2ccc(-c3ccn(CCC(C)(C)C)c(=O)c3)nn12 [1-(3,3-Dimethylbutyl)-4-(3-methylimidazo[1,2-b]pyridazin-6-yl)pyridin-2(1H)-one]
10 to 100	CC(=O)c1cnc2ccc(-c3ccn(CCC(C)C)c(=O)c3)nn12 [4-(3-Acetylimidazo[1,2-b]pyridazin-6-yl)-1-isopentylpyridin-2(1H)-one]

same assay, conditions: same assay, given as numeric bound instead of class symbol

SMILES	IC50 [nM]
CC(C)C[C@H](N)Cn1ccc(-c2ccc3nccn3n2)cc1=O [(S)-1-(2-Amino-4-methylpentyl)-4-(imidazo[1,2-b]pyridazin-6-yl)pyridin-2(1H)-one]	> 300
Cc1cnc2ccc(-c3ccn(C[C@@H](N)CC(C)C)c(=O)c3)nn12 [(S)-1-(2-Amino-4-methylpentyl)-4-(3-methylimidazo[1,2-b]pyridazin-6-yl)pyridin-2(1H)-one]	> 300

Next, values leading:

IC50 [nM]	SMILES
> 300	CC(C)OC(=O)n1cc(-c2ccc3nccn3n2)cn1 [Isopropyl 4-(imidazo[1,2-b]pyridazin-6-yl)-1H-pyrazole-1-carboxylate]
> 300	CC(C)(C)Cn1cc(-c2ccc3nccn3n2)cn1 [6-(1-Neopentyl-1H-pyrazol-4-yl)imidazo[1,2-b]pyridazine]
> 300	CC(C)C[C@@H](Cn1ccc(-c2ccc3nccn3n2)cc1=O)N1C(=O)c2ccccc2C1=O [(S)-2-(1-(4-(Imidazo[1,2-b]pyridazin-6-yl)-2-oxopyridin-1(2H)-yl)-4-methylpentan-2-yl)isoindoline-1,3-dione]
